Calls of active or inactive are those of the source. No cut-off for these calls is given here.
Tests used:
Klebsiella sp. = assay: Antibacterial activity against clinical isolate Klebsiella sp. 11 measured after 24 hrs by broth microdilution method; format: functional
[1] = system: Staphylococcus ureilyticus; assay: Antibacterial activity against clinical isolate Staphylococcus ureilyticus 1972 measured after 24 hrs by broth microdilution method; format: functional
Pseudomonas sp. = assay: Antibacterial activity against clinical isolate Pseudomonas sp. 5 measured after 24 hrs by broth microdilution method; format: functional
[2] = system: Staphylococcus intermedius; assay: Antibacterial activity against clinical isolate methicillin-resistant Staphylococcus intermedius 1143 measured after 24 hrs by broth microdilution method; format: functional
Staphylococcus aureus [3] = assay: Antibacterial activity against clinical isolate methicillin-resistant Staphylococcus aureus 713 measured after 24 hrs by broth microdilution method; format: functional
Klebsiella pneumoniae = assay: Antibacterial activity against clinical isolate Klebsiella pneumoniae 1813 measured after 24 hrs by broth microdilution method; format: functional
Staphylococcus aureus [4] = assay: Antibacterial activity against Staphylococcus aureus ATCC 29213 measured after 24 hrs by broth microdilution method; format: functional
Cell membrane [5] = assay: Induction of cell membrane damage in Escherichia coli assessed as decrease in flourescence measured for 35 mins with 5 min interval by DioC2(3) based flourescence method
Bacillus subtilis = assay: Antibacterial activity against Bacillus subtilis 168 measured after 24 hrs by broth microdilution method; format: functional
Enterococcus faecalis [6] = assay: Antibacterial activity against clinical isolate Enterococcus faecalis 3063 measured after 24 hrs by broth microdilution method; format: functional
[7] = Antibiofilm activity against biofilm-embedded Staphylococcus aureus/Pseudomonas aeruginosa assessed as reduction in viable cells upto 512 mg/L measured after 24 hrs by drop plate based dual species biofilm assay; format: functional, cell-based; conditions: dose mg/L <=512, time 24.0 hrs
Micrococcus luteus [8] = assay: Antibiofilm activity against biofilm-embedded Micrococcus luteus assessed as reduction in log CFU at 1 to 32 times of MBC measured after 24 hrs by drop plate assay; format: functional, organism-based
Staphylococcus aureus [9] = assay: Antibacterial activity against Staphylococcus aureus assessed as fold increase in MIC after 8 passages by serial dilution method; format: functional, organism-based; conditions: time 24.0 hrs
Proteus sp. = assay: Antibacterial activity against clinical isolate Proteus sp. 17 measured after 24 hrs by broth microdilution method; format: functional; conditions: Proteus sp. (in: enterobacteria)
[10] = Genotoxicity in Salmonella typhimurium TA1535/pSK1002 assessed as DNA-damage activity by measuring beta-galactosidase activity at 750 ug/ml measured by SOS-chromotest relative to solvent control; format: toxicity; conditions: salmonella enterica subsp. enterica serovar typhimurium; dose 750 µg/ml
[11] = Genotoxicity in Salmonella typhimurium TA98 assessed as number of revertant by Ames spot test relative to solvent control; format: toxicity; conditions: salmonella enterica subsp. enterica serovar typhimurium
Staphylococcus aureus [12] = assay: Antibacterial activity against clinical isolate Staphylococcus aureus 25 measured after 24 hrs by broth microdilution method; format: functional
Moraxella = assay: Antibacterial activity against clinical isolate Moraxella 765 measured after 24 hrs by broth microdilution method; format: functional
Pseudomonas aeruginosa [13] = assay: Antibiofilm activity against biofilm-embedded Pseudomonas aeruginosa assessed as reduction in log CFU at 1 to 32 times of MBC measured after 24 hrs by drop plate assay; format: functional, organism-based
[14] = Genotoxicity in Salmonella typhimurium TA1535/pSK1002 assessed as DNA-damage activity by measuring beta-galactosidase activity at 150 ug/ml measured by SOS-chromotest relative to solvent control; format: toxicity; conditions: salmonella enterica subsp. enterica serovar typhimurium; dose 150 µg/ml
[15] = Lipophilicity, logP of the compound; format: physicochemical; conditions: octanol/water
[16] = Cytotoxicity against human mesenchymal stem cells assessed as cell viability measured after 72 hrs by MTT assay; format: cell-based
Escherichia coli [17] = assay: Antibacterial activity against Escherichia coli MG 1655 measured after 24 hrs by broth microdilution method; format: functional
[18] = Acute toxicity in topically treated C57BL/6CBA mouse measured upto 14 days; conditions: in vivo, topical or ocular, time <=14 day
Staphylococcus aureus [19] = assay: Antibacterial activity against clinical isolate methicillin-resistant Staphylococcus aureus 1053 measured after 24 hrs by broth microdilution method; format: functional
[20] = Cytotoxicity against human HEK293 cells assessed as cell viability measured after 72 hrs by MTT assay; format: cell-based
Staphylococcus aureus [21] = assay: Antibacterial activity against clinical isolate methicillin-resistant Staphylococcus aureus 1065 measured after 24 hrs by broth microdilution method; format: functional
[22] = Acute toxicity in C57BL/6CBA mouse assessed as pale liver at 2000 mg/kg, po after 7 days; format: organism-based; conditions: in vivo, 168 h, time 7 day
[23] = Cytotoxicity against human skin fibroblasts assessed as cell viability measured after 72 hrs by MTT assay; format: cell-based, Fibroblast
[24] = Antibiofilm activity against biofilm-embedded Staphylococcus aureus/Escherichia coli assessed as reduction in viable cells upto 512 mg/L measured after 24 hrs by drop plate based dual species biofilm assay; format: functional, cell-based; conditions: dose mg/L <=512, time 24.0 hrs
[25] = Acute toxicity in C57BL/6CBA mouse assessed as death at 2000 mg/kg, po after 7 days; format: organism-based; conditions: in vivo, 168 h, time 7 day
Staphylococcus aureus [26] = assay: Antibiofilm activity against biofilm-embedded Staphylococcus aureus assessed as reduction in log CFU at 1 to 32 times of MBC measured after 24 hrs by drop plate assay; format: functional, organism-based
[27] = Acute toxicity in C57BL/6CBA mouse assessed as pale kidneys at 2000 mg/kg, po after 7 days; format: organism-based; conditions: in vivo, 168 h, time 7 day
[28] = Acute toxicity in C57BL/6CBA mouse assessed as necropsy measured at 2500 mg/kg treated as single topically measured after 14 days; format: organism-based; conditions: in vivo, topical_or_ocular, 336 h, time 14 day
[29] = Acute toxicity in topically treated C57BL/6CBA mouse assessed as death measured at 2500 mg/kg treated as single topically measured after 14 days; format: organism-based; conditions: in vivo, topical_or_ocular, 336 h, time 14 day
Escherichia coli [30] = assay: Antibacterial activity against clinical isolate Escherichia coli 718 measured after 24 hrs by broth microdilution method; format: functional
[31] = Genotoxicity in Salmonella typhimurium TA100 assessed as number of revertant by Ames spot test relative to solvent control; format: toxicity; conditions: salmonella enterica subsp. enterica serovar typhimurium
[32] = Genotoxicity in Salmonella typhimurium TA1537 assessed as number of revertant by Ames spot test relative to solvent control; format: toxicity; conditions: salmonella enterica subsp. enterica serovar typhimurium
Micrococcus luteus [33] = assay: Antibacterial activity against Micrococcus luteus clinical isolate measured after 24 hrs by broth microdilution method; format: functional
Escherichia coli [34] = assay: Antibiofilm activity against biofilm-embedded Escherichia coli assessed as reduction in log CFU at 1 to 32 times of MBC measured after 24 hrs by drop plate assay; format: functional, organism-based
Staphylococcus aureus [35] = assay: Antibacterial activity against clinical isolate methicillin-resistant Staphylococcus aureus 1131 measured after 24 hrs by broth microdilution method; format: functional
Pseudomonas aeruginosa [36] = assay: Antibacterial activity against Pseudomonas aeruginosa ATCC 27853 measured after 24 hrs by broth microdilution method; format: functional
[37] = Genotoxicity in Salmonella typhimurium TA1535/pSK1002 assessed as DNA-damage activity by measuring beta-galactosidase activity at 75 ug/ml measured by SOS-chromotest relative to solvent control; format: toxicity; conditions: salmonella enterica subsp. enterica serovar typhimurium; dose 75 µg/ml
Escherichia coli [38] = assay: Antibacterial activity against Escherichia coli assessed as fold increase in MIC after 4 passages by serial dilution method; format: functional, organism-based; conditions: time 24.0 hrs
Cell membrane [39] = assay: Induction of cell membrane damage in Staphylococcus aureus assessed as decrease in flourescence measured for 35 mins with 5 min interval by DioC2(3) based flourescence method
Pseudomonas aeruginosa [40] = assay: Antibacterial activity against clinical isolate Pseudomonas aeruginosa 1945 measured after 24 hrs by broth microdilution method; format: functional
Staphylococcus aureus [41] = assay: Antibacterial activity against clinical isolate methicillin-resistant Staphylococcus aureus 983 measured after 24 hrs by broth microdilution method; format: functional
Enterococcus faecalis [42] = assay: Antibacterial activity against clinical isolate Enterococcus faecalis 23 measured after 24 hrs by broth microdilution method; format: functional
[43] = Acute toxicity in C57BL/6CBA mouse assessed as enlarged spleen at 2000 mg/kg, po after 7 days; format: organism-based; conditions: in vivo, 168 h, time 7 day
Serratia marcescens = assay: Antibacterial activity against clinical isolate Serratia marcescens 1966 measured after 24 hrs by broth microdilution method; format: functional
[44] = Acute toxicity in po dosed C57BL/6CBA mouse measured upto 7 days; format: organism-based; conditions: in vivo, time <=7 day
[45] = Genotoxicity in Salmonella typhimurium TA1535 assessed as number of revertant by Ames spot test relative to solvent control; format: toxicity; conditions: salmonella enterica subsp. enterica serovar typhimurium
Acinetobacter sp. = assay: Antibacterial activity against clinical isolate Acinetobacter sp. 3 measured after 24 hrs by broth microdilution method; format: functional
[46] = Genotoxicity in Salmonella typhimurium TA1535/pSK1002 assessed as DNA-damage activity by measuring beta-galactosidase activity at 15 ug/ml measured by SOS-chromotest relative to solvent control; format: toxicity; conditions: salmonella enterica subsp. enterica serovar typhimurium; dose 15 µg/ml
[47] = Genotoxicity in Salmonella typhimurium TA1535/pSK1002 assessed as DNA-damage activity by measuring beta-galactosidase activity at 7.5 ug/ml measured by SOS-chromotest relative to solvent control; format: toxicity; conditions: salmonella enterica subsp. enterica serovar typhimurium; dose 7.5 µg/ml
[48] = system: Staphylococcus intermedius; assay: Antibacterial activity against clinical isolate methicillin-resistant Staphylococcus intermedius 1061 measured after 24 hrs by broth microdilution method; format: functional

SMILES: CCCCCCCCCCCC(=O)NCC[N+](C)(C)Cc1cnc(C)c2c1COC(C)(CCC)O2.[Cl-] (stereo unspecified)
- MIC (Klebsiella sp.): 16 µg/mL
- MIC [1]: 64 µg/mL
- MIC (Pseudomonas sp.): 32 µg/mL
- MIC [2]: 4 µg/mL
- MIC (Staphylococcus aureus [3]): 4 µg/mL
- MIC (Klebsiella pneumoniae): 16 µg/mL
- MIC (Staphylococcus aureus [4]): 1 µg/mL
- Activity (Cell membrane [5]): Dose-Dependent Effect
- MIC (Bacillus subtilis): 2 µg/mL
- MIC (Enterococcus faecalis [6]): 2 µg/mL
- Activity [7]: inactive
- Activity (Micrococcus luteus [8]): Active
- Activity (Staphylococcus aureus [9]): Active
- MIC (Proteus sp.): > 64 µg/mL
- Ratio [10]: 0.3
- Ratio [11]: 1.9
- MIC (Staphylococcus aureus [12]): 2 µg/mL
- MIC (Moraxella): 16 µg/mL
- Activity (Pseudomonas aeruginosa [13]): Active
- Ratio [14]: 0.5
- logP [15]: 1.35
- CC50 at 72 h [16]: 1.15 µg/mL
- MIC (Escherichia coli [17]): 4 µg/mL
- LD50 at 336 h [18]: > 2500 mg/kg
- MIC (Staphylococcus aureus [19]): 2 µg/mL
- CC50 at 72 h [20]: 0.15 µg/mL
- MIC (Staphylococcus aureus [21]): 2 µg/mL
- Activity [22]: Toxic
- CC50 at 72 h [23]: 1.79 µg/mL
- Activity [24]: inactive
- Activity [25]: Toxic
- Activity (Staphylococcus aureus [26]): Active
- Activity [27]: Toxic
- Activity [28]: Non-Toxic
- Activity [29]: Non-Toxic
- MIC (Escherichia coli [30]): 8 µg/mL
- Ratio [31]: 1.1
- Ratio [32]: 0.03
- MIC (Micrococcus luteus [33]): 2 µg/mL
- Activity (Escherichia coli [34]): Active
- MIC (Staphylococcus aureus [35]): 4 µg/mL
- MIC (Pseudomonas aeruginosa [36]): 32 µg/mL
- Ratio [37]: 0.7
- Activity (Escherichia coli [38]): Toxic
- Activity (Cell membrane [39]): Dose-Dependent Effect
- MIC (Pseudomonas aeruginosa [40]): 64 µg/mL
- MIC (Staphylococcus aureus [41]): 16 µg/mL
- MIC (Enterococcus faecalis [42]): 2 µg/mL
- Activity [43]: Toxic
- MIC (Serratia marcescens): 64 µg/mL
- LD50 at 168 h [44]: > 2000 mg/kg
- Ratio [45]: 0.5
- MIC (Acinetobacter sp.): 32 µg/mL
- Ratio [46]: 1.6
- Ratio [47]: 1.6
- MIC [48]: 4 µg/mL

Reference: ChEMBL document CHEMBL4819019, “Design, synthesis, antibacterial activity and toxicity of novel quaternary ammonium compounds based on pyridoxine and fatty acids” (Eur J Med Chem, 2021)
